Data as given in article PMC12736313, “Curcumin and Resveratrol vs. Ferrocene-Modified Polyphenols: Role in Enhancing Protective Properties in Human Keratinocytes” (Pharmaceutics, 2025).
“Also recorded” adds a separate entry of the source.

Assays:
HaCaT cells [1] = assay: Apoptosis/necrosis by Muse Annexin V & Dead Cell Kit (flow cytometry); assay type: cell-based, human; details: 48 h
Experimental: (§1) The Muse™ Annexin V & Dead Cell Kit (Cat. No. MCH100105, Millipore, Merck Darmstadt, Germany) was used to determine the percentage of HaCaT cells in four different cell populations (live, early apoptotic, late apoptotic, and dead) after treatment of cells with RSV, RF, CRC, and CF (5–100 μM; for 48 h) according to the manufacturer’s protocol. A detailed protocol was elucidated in Murati et al.. The cells were analyzed using the Muse™ Cell Analyzer (Luminex, Austin, TX, USA). For each concentration tested, 3–7 independent biological samples were analyzed.

HaCaT cells [2] = assay: Cell proliferation/viability by Trypan Blue exclusion method; assay type: cell-based, human; details: 48 h; for antiproliferative activity compared to RSV or CRC-treated cells: 5–100 µM
Experimental: (§2) The adherent HaCaT cell line was obtained from Cytion, Eppelheim, Germany. The HaCaT cell line was routinely grown in Dulbecco’s Modified Eagle Medium supplemented with 10% (v/v) fetal bovine serum (atmosphere of 95% air and 5% CO2 at 37 °C), obtained from Sigma-Aldrich Co., St. Louis, MO, USA. No antibiotics were used throughout the experiments. Cells were harvested with trypsin/EDTA solution (Sigma-Aldrich Co.) after reaching >70% confluence, diluted to the required density, and seeded in multiwell plates (Nunc, Roskilde, Denmark), depending on the experiments performed.
(§3) The cytotoxicity endpoints were determined by MTT (3-(4,5-dimethyl-2-thiazolyl)-2,5-diphenyl-2H-tetrazolium bromide) assay and Trypan blue method. For the MTT assay, cells were seeded in 96-well transparent flat-bottomed polystyrene plates at an initial concentration of 2.5 × 10^5 cells mL^−1 (100 μL/well) in growth medium supplemented with RSV, RF, CRC, and CF at concentrations of 5–100 μM. Concentrations were chosen based on our previously conducted research—reported cytotoxicity thresholds in HaCaT and other cell lines. RF and CF were synthesized in the Laboratory for Organic Chemistry at the University of Zagreb Faculty of Food Technology and Biotechnology, Zagreb, Croatia, while RSV and CRC were purchased from Sigma-Aldrich. After 48 h of incubation at 37 °C, cell viability was determined using the MTT assay. The absorbance was measured at 540 nm (Cary Eclipse spectrofluorimeter, Varian, Palo Alto, CA, USA). For the Trypan blue method, the cells were seeded in 6-well plates at an initial concentration of 2 × 10^4 cells mL^−1 (4 mL/well). After overnight incubation at 37 °C, the cells were treated with RSV, RF, CRC, and CF at different concentrations (5–100 μM). Cell viability was determined 48 h after treatment using the Trypan blue method. The stock solution of RSV was prepared in EtOH, while CRC and ferrocenyl analogues require DMSO due to higher lipophilicity. All stock solutions were stored at −20 °C until use. […] Cell viability is expressed as the percentage of treated cells compared to control cells. For each concentration tested, 3–15 independent biological samples were analyzed.

HaCaT cells [3] = assay: Autophagy by Muse Autophagy LC3-antibody based kit (flow cytometry); assay type: cell-based, human; details: 48 h; for order of the autophagy induction ratio (from highest to lowest): 100 µM
Experimental: The Muse™ Autophagy LC3-antibody based kit (Cat. No. MCH200109, Millipore) was used to determine the induction of autophagy in HaCaT cells after treatment with RSV, RF, CRC, and CF (5–100 μM) with some minor protocol modifications. The experimental procedure for both analyses was set up as for cell viability determination by the Trypan blue method. Autophagy induction data were read based on the fluorescence intensity of the sample (using Muse™ Cell Analyzer). For each concentration tested, 3–8 independent biological samples were analyzed.

DNA [4] = system: DNA; parameters: method as in PMID 21388716; details: cited from earlier work
DNA [5] = system: DNA; parameters: method as in PMID 21388716; details: cited from earlier work; remark: listed apart in the source
HaCaT cells [6] = assay: Intracellular ROS (DCFDA), UV-C-induced or endogenous; assay type: cell-based, human
Experimental: (§4) Two approaches were used for intracellular ROS induction. The first approach involved pretreatment of HaCaT cells with RSV, RF, CRC, and CF and, after overnight incubation, treatment with 50 μM tBHP (tert-butyl hydroperoxide). The second approach included pretreatment of the cells with CRC and CF, and after overnight incubation, exposure of the cells to UV (ultraviolet)-C light (15 W; 55 V; 254 nm; PURITEC HNS Linear Lamps, HNS 15 W G13, Osram GmbH, Munich, Germany) for 3 h. In brief, HaCaT cells were seeded at a concentration of 2.5 × 10^5 cells mL^−1 in black 96-well plates (100 µL/well) in growth medium and supplemented with RSV, RF, CRC, and CF at concentrations 2.5–50 μM. The DCFDA/H2DCFDA (2′,7′-dichlorofluorescin diacetate/2′,7′-dichlorodihydrofluorescein diacetate) assay was performed according to the manufacturer’s protocol with minor modifications (Cellular ROS Assay Kit Cat. No. ab113851, Abcam, Cambridge, UK). The intracellular ROS level was determined by measuring the fluorescence intensity (λex/em = 485/535 nm; Cary Eclipse spectrofluorimeter). Cells treated with the same volume of DMSO or EtOH in which RSV, RF, CRC, and CF were dissolved, and cells treated with 50 µM tBHP served as controls. In UV experiments, cells treated with the solvent (DMSO) and exposed to UVR (ultraviolet radiation) were considered as control samples. For each concentration tested, 3–8 independent biological samples were analyzed.

[7] = Apoptosis/necrosis by Muse Annexin V & Dead Cell Kit (flow cytometry); assay type: cell-based, human; details: human, HaCaT cells, highest concentration (100 µM), read-out: viability (live cells)
Experimental: as §1

HaCaT cells [8] = assay: Cell viability by MTT assay; assay type: cell-based, human; details: 48 h; for IC20 / IC50 / IC80: MTT method
Experimental: as §2, §3

HaCaT cells [9] = assay: Intracellular ROS (DCFDA) induced by tert-butyl hydroperoxide; assay type: cell-based, human; details: then 50 µM tBHP; for doses with statistically significant (p < 0.05) lowering of ROS levels: HaCaT pretreated overnight; for effect on ROS induced by tBHP: HaCaT pretreated with 2.5–50 µM
Experimental: as §4

[10] = Homo sapiens, HaCaT, Trypan Blue method, from dose–response curves
[11] = Homo sapiens, from dose–response curves
[12] = HaCaT, Trypan Blue method, from dose–response curves
[13] = value outside the range of the tested doses (>100 µM)

Oc1ccc(/C=C/c2cc(O)cc(O)c2)cc1 [RSV, 3,4′,5-trihydroxy-trans-stilbene]
level of cell death through necrotic or apoptotic pathways (HaCaT cells [1]; 100 µM): ≤ 11%
cell survival (proportion of viable cells in the culture) vs control (HaCaT cells [1]; 100 µM, p < 0.05): significantly lower
IC20 (HaCaT cells [2]; [10]): 3.22 µM
IC50 (HaCaT cells [2]; [10]): 40.3 µM
effect on autophagy induction (HaCaT cells [3]; 20 µM, p < 0.05): stimulating
effect on autophagy induction (HaCaT cells [3]; 100 µM (highest dose)): reducing
order of the autophagy induction ratio (from highest to lowest) (HaCaT cells [3]): CRC > CF > RF ≈ RSV

COc1cc(C=CC(=O)C=C[c-]2cccc2)ccc1O.[Fe+2].c1cc[cH-]c1 [FDZ, 1-(p-hydroxy-m-methoxyphenyl)-5-ferrocenyl-penta-1,4-dien-3-one]
effect on Cu2+/GSH-induced oxidation of DNA (DNA [4]): protective effects
inhibition of AAPH-induced oxidation of DNA (DNA [5]): in higher extent than CRC, feruloylacetone, and dehydrozingerone

COc1cc(/C=C/C(=O)CC(=O)/C=C/c2ccc(O)c(OC)c2)ccc1O [CRC, (1E,6E)-1,7-bis(4-hydroxy-3-methoxyphenyl)-1,6-heptadiene-3,5-dione]
doses with protective effect against UV-induced ROS (HaCaT cells [6]; HaCaT pretreated overnight, UV-C 3 h): ≥ 20 µM
doses significantly (p < 0.05) reducing endogenous ROS production (HaCaT cells [6]; HaCaT, without UV exposure): ≥ 20 µM
proportion of cells in early and late apoptosis (HaCaT cells [1]; 100 µM): 88.40%
proportion of cells in late apoptosis (HaCaT cells [1]; highest concentration (100 µM)): 88.34%
proportion of cells in necrosis (HaCaT cells [1]; highest concentration (100 µM)): 10.52%
viability at 48 h, 100 µM [7]: 1.08%
doses at which cell viability was almost completely impaired (HaCaT cells [2]; HaCaT, Trypan Blue): ≥ 50 µM
IC50 (HaCaT cells [2]; [10]): 11 µM
IC80 (HaCaT cells [2]; [10]): 26.4 µM
doses at which cell viability was almost completely impaired (HaCaT cells [8]; MTT): ≥ 50 µM
concentrations with statistically significant (p < 0.05) cytotoxicity (HaCaT cells [8]; MTT, vs solvent control): ≥ 20 µM
IC20 (HaCaT cells [8]; [11]): 7.28 µM
IC50 (HaCaT cells [8]; [11]): 18.9 µM
IC80 (HaCaT cells [8]; [11]): 34 µM
doses with statistically significant (p < 0.05) lowering of ROS levels (HaCaT cells [9]): ≥ 5 µM
effect on ROS induced by tBHP (HaCaT cells [9]): most pronounced effect
effect on autophagy induction (HaCaT cells [3]; 100 µM (highest dose)): highest autophagy induction ratio; also recorded: most prominent autophagy induction ratio
order of the autophagy induction ratio (from highest to lowest) (HaCaT cells [3]): CRC > CF > RF ≈ RSV

COc1cc(/C=C/C(=O)CC(=O)[c-]2cccc2)ccc1O.[Fe+2].c1cc[cH-]c1 [CF, (E)-5-(4-hydroxy-3-methoxyphenyl)-1-ferrocenylpent-4-ene-1,3-dione]
effect on UV-induced ROS (HaCaT cells [6]; HaCaT pretreated with 2.5–50 µM, UV-C 3 h): did not exhibit significant antioxidant activity
effect on cell death / viability by flow cytometry (HaCaT cells [1]; 5–100 µM): induced cell death significantly less compared to all compounds tested; also recorded: almost no effect on cell viability
antiproliferative activity compared to RSV or CRC-treated cells (HaCaT cells [2]; Trypan Blue): significantly lower antiproliferative activity
IC20 (HaCaT cells [2]; [12]): 75.4 µM
IC20 (HaCaT cells [8]; [13]): 121 µM
IC50 (HaCaT cells [8]; [13]): 208 µM
IC80 (HaCaT cells [8]; [13]): 273 µM
doses with statistically significant (p < 0.05) lowering of ROS levels (HaCaT cells [9]): ≥ 5 µM
effect on ROS induced by tBHP (HaCaT cells [9]): most pronounced effect; also recorded: significantly reduced the ROS induced by tBHP
order of the autophagy induction ratio (from highest to lowest) (HaCaT cells [3]): CRC > CF > RF ≈ RSV
effect on autophagy induction (HaCaT cells [3]; 5–100 µM): reduced autophagic degradation activity; also recorded: decrease in the autophagy induction ratio

O=C(CCC[c-]1cccc1)Oc1ccc(/C=C/c2cc(OC(=O)CCC[c-]3cccc3)cc(OC(=O)CCC[c-]3cccc3)c2)cc1.[Fe+2].[Fe+2].[Fe+2].c1cc[cH-]c1.c1cc[cH-]c1.c1cc[cH-]c1 [RF, trans-3,5,4′-tri(4-ferrocenylbutanoyloxy)-stilbene]
doses after which the majority of cells remained in the early apoptosis fraction (HaCaT cells [1]): ≥ 5 µM
antiproliferative activity compared to RSV or CRC-treated cells (HaCaT cells [2]; Trypan Blue): significantly lower antiproliferative activity
IC20 (HaCaT cells [2]; [12]): 10.8 µM
effect on ROS induced by tBHP (HaCaT cells [9]): significantly reduced the ROS induced by tBHP
effect on autophagy induction (HaCaT cells [3]; 5 µM): slightly induced autophagy
effect on autophagy induction (HaCaT cells [3]; 100 µM (highest dose)): lower autophagy-related LC3 protein
order of the autophagy induction ratio (from highest to lowest) (HaCaT cells [3]): CRC > CF > RF ≈ RSV

COc1cc(C=CC(=O)C(=C[c-]2cccc2)C(=O)C=Cc2ccc(O)c(OC)c2)ccc1O.[Fe+2].c1cc[cH-]c1 [FCU, 1,7-bis(p-hydroxy-m-methoxyphenyl)-4-ferrocenylidene-hepta-1,6-diene-3,5-dione]
effect on Cu2+/GSH-induced oxidation of DNA (DNA [4]): protective effects
inhibition of AAPH-induced oxidation of DNA (DNA [5]): in higher extent than CRC, feruloylacetone, and dehydrozingerone

COc1cc(C=CC(O)=CC(=O)C=C[c-]2cccc2)ccc1O.[Fe+2].c1cc[cH-]c1 [FFT, 1-(p-hydroxy-m-methoxyphenyl)-3-hydroxy-7-ferrocenyl-hepta-1,4,6-trien-5-one]
effect on Cu2+/GSH-induced oxidation of DNA (DNA [4]): protective effects
inhibition of AAPH-induced oxidation of DNA (DNA [5]): in higher extent than CRC, feruloylacetone, and dehydrozingerone
